Reference: publication PMC9481151, “Discovery of new symmetrical and asymmetrical nitrile-containing 1,4-dihydropyridine derivatives as dual kinases and P-glycoprotein inhibitors: synthesis, in vitro assays, and in silico studies” (Journal of Enzyme Inhibition and Medicinal Chemistry, 2022)
Values after ≈ are worked out from the molar mass of the structure shown. Values joined by “and” are separate entries in the source; they are usually repeats but may differ in a detail not shown here. Equal values may be shown once. Read-outs that look alike come from different tables or passages of the source.

How the values were obtained:
SK-MEL-5 = assay: NCI single dose (10 µM) SRB screen; format: cell-based, human; details: melanoma, 48 h
P. aeruginosa = assay: MIC, two-fold microbroth dilution method; details: Pseudomonas aeruginosa, read-out: MIC (µg/mL) P. aeruginosa
C. albicans = assay: MIC, two-fold microbroth dilution method; details: Candida albicans
SK-MEL-2 = assay: NCI single dose (10 µM) SRB screen; format: cell-based, human; details: melanoma, 48 h
B. subtilis = assay: MIC, two-fold microbroth dilution method; details: Bacillus subtilis
KM12 = assay: NCI single dose (10 µM) SRB screen; format: cell-based, human; details: colon cancer, 48 h
NCI-H226 = assay: NCI single dose (10 µM) SRB screen; format: cell-based, human; details: non-small cell lung cancer, 48 h
S. aureus = assay: MIC, two-fold microbroth dilution method; details: Staphylococcus aureus
IGROV1 = assay: NCI single dose (10 µM) SRB screen; format: cell-based, human; details: ovarian cancer, 48 h
Candida albicans = assay: Agar well diffusion method; details: for zone of inhibition at 1000 µg/mL: Candida albicans, 24 h, read-out: Diameter of inhibition zone, C. albicans; for % activity index, C. albicans: relative to clotrimazole
ACHN = assay: NCI single dose (10 µM) SRB screen; format: cell-based, human; details: renal cancer, 48 h
E. coli = assay: MIC, two-fold microbroth dilution method; details: Escherichia coli, read-out: MIC (µg/mL) E. coli
Aspergillus flavus = assay: Agar well diffusion method; details: for zone of inhibition at 1000 µg/mL: Aspergillus flavus, 24 h, read-out: Diameter of inhibition zone, A. flavus; for % activity index, A. flavus: relative to clotrimazole
CAKI-1 = assay: NCI single dose (10 µM) SRB screen; format: cell-based, human; details: renal cancer, 48 h
A. flavus = assay: MIC, two-fold microbroth dilution method; details: Aspergillus flavus, read-out: MIC (µg/mL) A. flavus
TK-10 = assay: NCI single dose (10 µM) SRB screen; format: cell-based, human; details: renal cancer, 48 h
HT29 = assay: NCI single dose (10 µM) SRB screen; format: cell-based, human; details: colon cancer, 48 h
Escherichia coli = assay: Agar well diffusion method; details: for zone of inhibition at 1000 µg/mL: Escherichia coli, 24 h, read-out: Diameter of inhibition zone, E. coli; for % activity index, E. coli: relative to ciprofloxacin
HS578T = assay: NCI single dose (10 µM) SRB screen; format: cell-based, human; details: breast cancer, 48 h
OVCAR-5 = assay: NCI single dose (10 µM) SRB screen; format: cell-based, human; details: ovarian cancer, 48 h
[1] = read-out: MIC (µg/mL) C. albicans
[2] = 24 h, read-out: MIC, B. subtilis
[3] = read-out: MIC (µg/mL) B. subtilis
[4] = read-out: MIC (µg/mL) S. aureus

| Structure (SMILES) | GI% SK-MEL-5 (SK-MEL-5) | MIC (P. aeruginosa) [µg/mL] | MIC (C. albicans; [1]) [µg/mL] | GI% SK-MEL-2 (SK-MEL-2) | MIC (B. subtilis; [3]) [µg/mL] | GI% KM12 (KM12) | GI% NCI-H226 (NCI-H226) | MIC (S. aureus; [4]) [µg/mL] | GI% IGROV1 (IGROV1) | zone of inhibition at 1000 µg/mL (Candida albicans) [mm] | % activity index, C. albicans (Candida albicans) | GI% ACHN (ACHN) | MIC (E. coli) [µg/mL] | zone of inhibition at 1000 µg/mL (Aspergillus flavus) [mm] | % activity index, A. flavus (Aspergillus flavus) [%] | GI% CAKI-1 (CAKI-1) | MIC (A. flavus) [µg/mL] | GI% TK-10 (TK-10) | GI% HT29 (HT29) | melting point [°C] | also measured |
| --- | --- | --- | --- | --- | --- | --- | --- | --- | --- | --- | --- | --- | --- | --- | --- | --- | --- | --- | --- | --- | --- |
| COC(=O)C1=C(C)NC(C)=C(C(=O)OC(C)C)C1c1cccc(C#N)c1 (racemic) [Compound 2a, (±)-3-Isopropyl 5-methyl 4-(3-cyanophenyl)-2,6-dimethyl-1,4-dihydropyridine-3,5-dicarboxylate] | – (Only GI% ≥ 10 are shown) | 4 (≈ 11.3 µM) | 4 (≈ 11.3 µM) | – (Only GI% ≥ 10 are shown) | 2 (≈ 5.64 µM) | – (Only GI% ≥ 10 are shown) | – (Only GI% ≥ 10 are shown) | 1 (≈ 2.82 µM) | – (Only GI% ≥ 10 are shown) | 21 | 77% and 77.8% | – (Only GI% ≥ 10 are shown) | 2 (≈ 5.64 µM) | 22 | 88 | 11% | 8 (≈ 22.6 µM) | – (Only GI% ≥ 10 are shown) | – (Only GI% ≥ 10 are shown) | 128 to 130 | MIC (B. subtilis; [2]): 2 µg/mL (≈ 5.64 µM); MIC (S. aureus; 24 h, read-out: MIC, S. aureus): 1 µg/mL (≈ 2.82 µM); zone of inhibition at 1000 µg/mL (Escherichia coli): 14 mm; % activity index, E. coli (Escherichia coli): 53.8%; GI% HS578T (HS578T): – (Only GI% ≥ 10 are shown); GI% OVCAR-5 (OVCAR-5): – (Only GI% ≥ 10 are shown) |
| CCOC(=O)C1=C(C)NC(C)=C(C(=O)OC)C1c1cccc(C#N)c1 (racemic) [Compound 2g, (±)-3-Ethyl 5-methyl 4-(3-cyanophenyl)-2,6-dimethyl-1,4-dihydropyridine-3,5-dicarboxylate] | – (Only GI% ≥ 10 are shown) | 2 (≈ 5.88 µM) | 1 (≈ 2.94 µM) | – (Only GI% ≥ 10 are shown) | 1 (≈ 2.94 µM) | – (Only GI% ≥ 10 are shown) | – (Only GI% ≥ 10 are shown) | 0.5 (≈ 1.47 µM) | – (Only GI% ≥ 10 are shown) | 23 | 85% and 85.2% | – (Only GI% ≥ 10 are shown) | 1 (≈ 2.94 µM) | 24 | 96 | – (Only GI% ≥ 10 are shown) | 2 (≈ 5.88 µM) | – (Only GI% ≥ 10 are shown) | – (Only GI% ≥ 10 are shown) | 151 to 153 | MIC (C. albicans; 24 h, read-out: MIC, C. albicans): 1 µg/mL (≈ 2.94 µM); MIC (B. subtilis; [2]): 1 µg/mL (≈ 2.94 µM); MIC (S. aureus; 24 h, read-out: MIC, S. aureus): 0.5 µg/mL (≈ 1.47 µM); zone of inhibition at 1000 µg/mL (Escherichia coli): 19 mm; % activity index, E. coli (Escherichia coli): 73% and 73.1%; GI% HS578T (HS578T): 10%; GI% OVCAR-5 (OVCAR-5): – (Only GI% ≥ 10 are shown) |
| CCOC(=O)C1=C(C)NC(C)=C(C(=O)OC(C)(C)C)C1c1cccc(C#N)c1 (racemic) [Compound 2j, (±)-3-Tert-butyl 5-ethyl 4-(3-cyanophenyl)-2,6-dimethyl-1,4-dihydropyridine-3,5-dicarboxylate] | – (Only GI% ≥ 10 are shown) | 4 (≈ 10.5 µM) | 16 (≈ 41.8 µM) | – (Only GI% ≥ 10 are shown) | 4 (≈ 10.5 µM) | – (Only GI% ≥ 10 are shown) | – (Only GI% ≥ 10 are shown) | 8 (≈ 20.9 µM) | – (Only GI% ≥ 10 are shown) | 19 | 70% and 70.4% | – (Only GI% ≥ 10 are shown) | 1 (≈ 2.61 µM) | 20 | 80 | 17% | 8 (≈ 20.9 µM) | – (Only GI% ≥ 10 are shown) | – (Only GI% ≥ 10 are shown) | 152 to 153 | zone of inhibition at 1000 µg/mL (Escherichia coli): 18 mm; % activity index, E. coli (Escherichia coli): 69% and 69.2%; GI% HS578T (HS578T): – (Only GI% ≥ 10 are shown); GI% OVCAR-5 (OVCAR-5): – (Only GI% ≥ 10 are shown) |
| CCOC(=O)C1=C(C)NC(C)=C(C(=O)OCCOC)C1c1cccc(C#N)c1 (racemic) [Compound 2k, (±)-3-Ethyl 5-(2-methoxyethyl) 4-(3-cyanophenyl)-2,6-dimethyl-1,4-dihydropyridine-3,5-dicarboxylate] | – (Only GI% ≥ 10 are shown) | 8 (≈ 20.8 µM) | 32 (≈ 83.2 µM) | – (Only GI% ≥ 10 are shown) | 8 (≈ 20.8 µM) | – (Only GI% ≥ 10 are shown) | – (Only GI% ≥ 10 are shown) | 16 (≈ 41.6 µM) | – (Only GI% ≥ 10 are shown) | 16 | 59.2% | – (Only GI% ≥ 10 are shown) | 4 (≈ 10.4 µM) | 18 | 72 | – (Only GI% ≥ 10 are shown) | 32 (≈ 83.2 µM) | – (Only GI% ≥ 10 are shown) | – (Only GI% ≥ 10 are shown) | 133 to 134 | zone of inhibition at 1000 µg/mL (Escherichia coli): 15 mm; % activity index, E. coli (Escherichia coli): 57.7%; GI% HS578T (HS578T): – (Only GI% ≥ 10 are shown); GI% OVCAR-5 (OVCAR-5): – (Only GI% ≥ 10 are shown) |
| COCCOC(=O)C1=C(C)NC(C)=C(C(=O)OCCOC)C1c1cccc(C#N)c1 [Compound 1f, Di(2-methoxyethyl) 4-(3-cyanophenyl)-2,6-dimethyl-1,4-dihydropyridine-3,5-dicarboxylate] | – (Only GI% ≥ 10 are shown) | 16 (≈ 38.6 µM) | 16 (≈ 38.6 µM) | – (Only GI% ≥ 10 are shown) | 2 (≈ 4.83 µM) | – (Only GI% ≥ 10 are shown) | – (Only GI% ≥ 10 are shown) | 4 (≈ 9.65 µM) | – (Only GI% ≥ 10 are shown) | 18 | 66.7% | – (Only GI% ≥ 10 are shown) | 8 (≈ 19.3 µM) | 19 | 76 | – (Only GI% ≥ 10 are shown) | 16 (≈ 38.6 µM) | – (Only GI% ≥ 10 are shown) | – (Only GI% ≥ 10 are shown) | 125 to 126 | zone of inhibition at 1000 µg/mL (Escherichia coli): 13 mm; % activity index, E. coli (Escherichia coli): 50%; GI% HS578T (HS578T): – (Only GI% ≥ 10 are shown); GI% OVCAR-5 (OVCAR-5): – (Only GI% ≥ 10 are shown) |
